Where two headings read alike, the source gives them in different places. Blank lines part the entries; values can stand above or below the compound they belong to.
Assays:
MDA-MB-436 cells = test: Cell proliferation inhibition assay (CCK8); format: cell-based; conditions: Homo sapiens, 72 hours
[1] = Pharmacokinetics assay in SD rats (LC/MS/MS plasma concentration); format: in vivo; conditions: 15 mg/kg; for AUC / half-life / MRT / Cmax / bioavailability: both sexes, rat, plasma; for AUC: read-out: Area Under Curve AUC; for half-life: read-out: Half-Life t1/2 (converted); for MRT: read-out: Mean Residence Time MRT; for Cmax: read-out: Plasma Conc. Cmax; for bioavailability: po
Method: The pharmacokinetic behavior of the compounds of the present invention was studied and evaluated in rats.
24 Healthy adult SD rats, male and female in half, were purchased from SINO-BRITSH SIPPR/BK LAB. ANIMAL LTD., CO, Certificate No.: SCXK (Shanghai) 2003-0002.
The intragastrical administration group: the right amount of tested compounds were weighed and dissolved in 0.5 mL of DMSO, diluted with physiological saline to 10 mL and prepared to 1.5 mg/mL.
The intravenous injection administration group: the right amount of tested compounds were weighed and added into […].
After an overnight fast, 24 healthy adult SD rats, male and female in half, were administered intragastrically at a dose of 15.0 mg/kg and an administration volume of 10 mL/kg.
(§1) The intragastrical administration group: blood samples (0.2 mL) were taken from orbital sinus at pre administration and at 0.25 hour, 0.5 hour, 1.0 hour, 1.5 hours, 2.0 hours, 3.0 hours, 4.0 hours, 6.0 hours, 7.0 hours, 9.0 hours, 12.0 hours and 24.0 hours post administration, stored in heparinized tubes and centrifuged for 20 minutes at 3,500 rpm to separate plasma. The plasma samples were stored at −20° C. The rats were fed at 2 hours after administration.
as §1, with “intravenous injection” for “intragastrical”, “2 minutes, 15 minutes,” for “0.25 hour,”, “hour,” for “hour, 1.5 hours,”, “8.0” for “7.0 hours, 9.0”, “C.” for “C. The rats were fed at 2 hours after administration.”
20 μL of rat blank plasmas taken at various time points after administration were added with 50 μL of internal standard solution and 140 μL of methanol and mixed for 3 minutes by a vortexer. The mixture was centrifuged for 10 minutes at 13,500 rpm. 20 μL of the supernatant was analyzed by LC-MS/MS. The main pharmacokinetic parameters were calculated by software DAS 2.0.

[2] = test system: human colon carcinoma SW620; test: Antitumor effect with temozolomide on SW620 transplanted tumors in nude mice; format: in vivo; conditions: colon carcinoma SW620 in BALB/cA-nude mice; 1 mg/kg oral gavage + TMZ 50 mg/kg oral gavage; day 44
Method: The therapeutic effect of the compounds of the present invention administered in combination with temozolomide (TMZ) on transplanted tumors of human colon carcinoma SW620 or human breast cancer cells MX-1 in nude mice was evaluated by using BALB/cA-nude mice as test animals.
BALB/cA-nude mice, SPF, 16-20 g, female( ), were purchased from SINO-BRITSH SIPPR/BK LAB. ANIMAL LTD., CO. Certificate No.: SCXK(Shanghai) 2008-0016.
4.2 The right rib of the nude mice was subcutaneously inoculated with colon carcinoma cells SW620. After tumors grew to 339±132 mm^3, mice were randomly divided into teams (d0).
The volume of tumors and the weight of the mice were measured and recorded for 2 to 3 times per week.
The volume of tumor (V) was calculated by the follow equation: V=½×a×b^2 wherein: a, b represents length and width respectively. The antitumor rate(%)=(C−T)/C(%) wherein: T, C represents the tumor volume of the experimental group (tested compounds) and blank control group at the end of the experiment respectively. 5. Dosage, Dosage Regimens and the Results

IC50 (MDA-MB-436 cells): 99 nM
SMILES: O=C(c1cc(Cc2n[nH]c(=O)c3ccccc23)ccc1F)N1CCn2ncnc2C1 [Example 16, 4-[[3-(6,8-dihydro-5H-[1,2,4]triazolo[1,5-a]pyrazine-7-carbonyl)-4-fluoro-phenyl]methyl]-2H-phthalazin-1-one]

IC50 (MDA-MB-436 cells): 590 nM
SMILES: O=C(c1cc(Cc2n[nH]c(=O)c3ccccc23)ccc1F)N1CCn2cc(C(F)(F)F)nc2C1 [Example 12, 4-[[4-fluoro-3-[2-(trifluoromethyl)-6,8-dihydro-5H-imidazo[1,2-a]pyrazine-7-carbonyl]phenyl]methyl]-2H-phthalazin-1-one]

IC50 (MDA-MB-436 cells): 140 nM
SMILES: NC(=O)c1nc(C(F)(F)F)n2c1CN(C(=O)c1cc(Cc3n[nH]c(=O)c4ccccc34)ccc1F)CC2 [Example 10, 7-[2-fluoro-5-[(4-oxo-3H-phthalazin-1-yl)methyl]benzoyl]-3-(trifluoromethyl)-6,8-dihydro-5H-imidazo[1,5-a]pyrazine-1-carboxamide]

IC50 (MDA-MB-436 cells): 72 nM
SMILES: O=C(NCC1CC1)c1nc(C(F)(F)F)n2c1CN(C(=O)c1cc(Cc3n[nH]c(=O)c4ccccc34)ccc1F)CC2 [Example 24, N-(cyclopropylmethyl)-7-[2-fluoro-5-[(4-oxo-3H-phthalazin-1-yl)methyl]benzoyl]-3-(trifluoromethyl)-6,8-dihydro-5H-imidazo[1,5-a]pyrazine-1-carboxamide]

IC50 (MDA-MB-436 cells): 190 nM
SMILES: COC(=O)c1nc(C(F)(F)F)n2c1CN(C(=O)c1cc(Cc3n[nH]c(=O)c4ccccc34)ccc1F)CC2 [Example 3, methyl 7-[2-fluoro-5-[(4-oxo-3H-phthalazin-1-yl)methyl]benzoyl]-3-(trifluoromethyl)-6,8-dihydro-5H-imidazo[1,5-a]pyrazine-1-carboxylate]

IC50 (MDA-MB-436 cells): 320 nM
SMILES: O=C(c1cc(Cc2n[nH]c(=O)c3ccccc23)ccc1F)N1CCn2c(cnc2C(F)(F)F)C1 [Example 5, 4-[[4-fluoro-3-[3-(trifluoromethyl)-6,8-dihydro-5H-imidazo[1,5-a]pyrazine-7-carbonyl]phenyl]methyl]-2H-phthalazin-1-one]

IC50 (MDA-MB-436 cells): 3 nM
SMILES: O=C(c1cc(Cc2n[nH]c(=O)c3ccccc23)ccc1F)N1CCn2c(nnc2CC(F)(F)F)C1 [Example 26, 4-[[4-fluoro-3-[3-(2,2,2-trifluoroethyl)-6,8-dihydro-5H-[1,2,4]triazolo[4,3-a]pyrazine-7-carbonyl]phenyl]methyl]-2H-phthalazin-1-one]

IC50 (MDA-MB-436 cells): 2 nM
SMILES: O=C(c1cc(Cc2n[nH]c(=O)c3ccccc23)ccc1F)N1CCn2c(nnc2C(F)F)C1 [Example 23, 4-[[3-[3-(difluoromethyl)-6,8-dihydro-5H-[1,2,4]triazolo[4,3-a]pyrazine-7-carbonyl]-4-fluoro-phenyl]methyl]-2H-phthalazin-1-one]

AUC ([1]; intravenous injection): 29400 ± 18500 ng·h/mL
half-life ([1]; intravenous injection): 5.05 ± 1.34 h
MRT ([1]; intravenous injection): 0.89 ± 0.44 h
AUC ([1]; oral gavage): 4300 ± 3250 ng·h/mL
half-life ([1]; oral gavage): 6.01 ± 2.27 h
MRT ([1]; oral gavage): 1.87 ± 0.53 h
Cmax ([1]; oral gavage): 3070 ± 719 ng/mL
bioavailability [1]: 16.8%
Apparent Distribution Volume Vz/F ([1]; intravenous injection): 4.70 ± 2.17 kg⁻¹
Clearance CL/F ([1]; intravenous injection): 0.72 ± 0.45 1/11/kg
Apparent Distribution Volume Vz/F ([1]; oral gavage): 49.9 ± 52.9 kg⁻¹
Clearance CL/F ([1]; oral gavage): 4.47 ± 3.78 1/11/kg
IC50 (MDA-MB-436 cells): 120 nM
SMILES: CNC(=O)c1nc(C(F)(F)F)n2c1CN(C(=O)c1cc(Cc3n[nH]c(=O)c4ccccc34)ccc1F)CC2 [Example 13, 7-[2-fluoro-5-[(4-oxo-3H-phthalazin-1-yl)methyl]benzoyl]-N-methyl-3-(trifluoromethyl)-6,8-dihydro-5H-imidazo[1,5-a]pyrazine-1-carboxamide]

AUC ([1]; intravenous injection): 34800 ± 15500 ng·h/mL
half-life ([1]; intravenous injection): 0.94 ± 0.26 h
MRT ([1]; intravenous injection): 1.25 ± 0.53 h
AUC ([1]; oral gavage): 4500 ± 6670 ng·h/mL
half-life ([1]; oral gavage): 3.87 ± 4.03 h
MRT ([1]; oral gavage): 12.7 ± 15.4 h
Cmax ([1]; oral gavage): 971 ± 1400 ng/mL
bioavailability [1]: 12.9%
Apparent Distribution Volume Vz/F ([1]; intravenous injection): 0.64 ± 0.19 kg⁻¹
Clearance CL/F ([1]; intravenous injection): 0.52 ± 0.29 1/11/kg
Apparent Distribution Volume Vz/F ([1]; oral gavage): 103 ± 134 kg⁻¹
Clearance CL/F ([1]; oral gavage): 15.4 ± 12.4 1/11/kg
IC50 (MDA-MB-436 cells): 71 nM
SMILES: CCNC(=O)c1nc(C(F)(F)F)n2c1CN(C(=O)c1cc(Cc3n[nH]c(=O)c4ccccc34)ccc1F)CC2 [Example 7, N-ethyl-7-[2-fluoro-5-[(4-oxo-3H-phthalazin-1-yl)methyl]benzoyl]-3-(trifluoromethyl)-6,8-dihydro-5H-imidazo[1,5-a]pyrazine-1-carboxamide]

IC50 (MDA-MB-436 cells): 0.8 nM
SMILES: O=C(c1cc(Cc2n[nH]c(=O)c3ccccc23)ccc1F)N1CCn2c(nnc2C(F)(F)F)C1 [Example 1, 4-[[4-fluoro-3-[3-(trifluoromethyl)-6,8-dihydro-5H-[1,2,4]triazolo[4,3-a]pyrazine-7-carbonyl]phenyl]methyl]-2H-phthalazin-1-one]
antitumor rate (%) [2]: ++ (“++”: 60%~80%)

IC50 (MDA-MB-436 cells): 61 nM
SMILES: O=C(c1cc(Cc2n[nH]c(=O)c3ccccc23)ccc1F)N1CCn2cnnc2C1 [Example 17, 4-[[3-(6,8-dihydro-5H-[1,2,4]triazolo[4,3-a]pyrazine-7-carbonyl)-4-fluoro-phenyl]methyl]-2H-phthalazin-1-one]

IC50 (MDA-MB-436 cells): 610 nM
SMILES: O=C(c1cc(Cc2n[nH]c(=O)c3ccccc23)ccc1F)N1CCn2c(C(F)(F)F)nc(C(=O)N3CCCC3)c2C1 [Example 18, 4-[[4-fluoro-3-[1-(pyrrolidine-1-carbonyl)-3-(trifluoromethyl)-6,8-dihydro-5H-imidazo[1,5-a]pyrazine-7-carbonyl]phenyl]methyl]-2H-phthalazin-1-one]

IC50 (MDA-MB-436 cells): 0.9 nM
SMILES: O=C(c1cccc(Cc2n[nH]c(=O)c3ccccc23)c1)N1CCn2c(nnc2C(F)(F)F)C1 [Example 15, 4-[[3-[3-(trifluoromethyl)-6,8-dihydro-5H-[1,2,4]triazolo[4,3-a]pyrazine-7-carbonyl]phenyl]methyl]-2H-phthalazin-1-one]

IC50 (MDA-MB-436 cells): 650 nM
SMILES: CN(C)C(=O)c1nc(C(F)(F)F)n2c1CN(C(=O)c1cc(Cc3n[nH]c(=O)c4ccccc34)ccc1F)CC2 [Example 22, 7-[2-fluoro-5-[(4-oxo-3H-phthalazin-1-yl)methyl]benzoyl]-N,N-dimethyl-3-(trifluoromethyl)-6,8-dihydro-5H-imidazo[1,5-a]pyrazine-1-carboxamide]

IC50 (MDA-MB-436 cells): 780 nM
SMILES: CNC(=O)c1nc(C(F)(F)F)n2c1CN(C(=O)c1cccc(Cc3n[nH]c(=O)c4ccccc34)c1)CC2 [Example 21, N-methyl-7-[3-[(4-oxo-3H-phthalazin-1-yl)methyl]benzoyl]-3-(trifluoromethyl)-6,8-dihydro-5H-imidazo[1,5-a]pyrazine-1-carboxamide]

Source: US9273052B2, “Phthalazinone ketone derivative, preparation method thereof, and pharmaceutical use thereof” (Jiangsu Hansoh Pharmaceutical Co., Ltd., priority 2010, dated 2016)
